The test relates to His-tagged NSD2 PWWP1. As to the kind of experiment: TR-FRET cooperativity (competition) assay: displacement of biotinylated NSD2 ligand UNC7096. The format is binding, human. An excerpt:
Because of the direct interactions observed between FBXO22 and NSD2, we hypothesized that some degree of cooperative binding could facilitate complex stabilization. Therefore, we developed a TR-FRET assay to monitor the interaction between his-tagged NSD2 and a biotinylated NSD2 ligand, UNC7096, that is missing the modality for FBXO22-recruitment (Supplementary Fig. 3D)[20]. Given the positive FRET signal observed when both NSD2 PWWP1 and UNC7096 are present, we used this setup to evaluate the displacement of UNC7096 by UNC10088 in the presence or absence of the FBXO22 FIST domain (Supplementary Fig. 3D). […] Importantly, this FBXO22-dependent enhancement of NSD2 antagonism by UNC10088 was absent when C326 was substituted for alanine (Supplementary Fig. 3F). Taken together, the SCF^FBXO22-NSD2 PWWP1 structure both confirms prior results and provides additional insight into the surfaces that contribute to a cooperative interaction between NSD2 and FBXO22 to promote potent NSD2 polyubiquitination and degradation.
The TR-FRET assay was adapted to assess cooperativity from the following workflows previously reported[39],[40]. Assays were performed in white, low-volume, flat-bottom, nonbinding 384-well microplates (Greiner, Catalog No. 784904) with a final assay volume of 10 μL per well. The assay buffer contained 20 mM Tris–HCl (pH 7.5) and 150mM NaCl, 0.05% Tween-20 (v/v), 2mM DTT, and 1% DMSO (v/v). LANCE Europium (Eu)-W8044 Streptavidin conjugate (2 nM) and LANCE Ultra ULight-anti6x-His labeled antibodies (10 nM) were used as donor and acceptor fluorophores associated with the tracer ligand and protein, respectively. Final assay concentrations of 63 nM His-tagged NSD2 PWWP1 and 31 nM of UNC7096 (a biotinylated version of the NSD2 ligand) as a tracer ligand were used for compound testing. UNC8732, UNC10088, and UNC10415667 were diluted in a 10-point, 3-fold serial dilution, and indicated compounds were pre-incubated with FBXO22 FIST for 30 min. A master mix of NSD2 PWWP1, UNC7096, and TR-FRET reagents was made prior to its addition to the compounds and/or FBXO22 FIST. The plates were sealed with metallic covers, mixed gently for 1 min, and incubated in the dark for 1 h. After 1 h, the plate was read on an EnVision 2103 plate reader with a 320 nm excitation filter and 615 nm/ 665 nm emission filters simultaneously with a dual mirror D400/D630 and a 100 μs delay. […] Raw TR-FRET signals were normalized to a high inhibition control (10 μM of UNC10088) and negative control (1% DMSO). The normalized TR-FRET signals were plotted against the compound concentrations. […] Ki values were calculated from the IC50s using the tight-binding model[41],[42]. The cooperativity factor (α) was calculated as the ratio of Ki (Binary)/ Ki (Ternary), with α > 1 indicating positive cooperativity between NSD2 PWWP1 and FBXO22 FIST based on its disruption of NSD2 binding to UNC7096.
In general terms: TR-FRET usually uses a lanthanide donor and a delayed reading to cut background.

For `O=C1COc2cc(C(=O)N(Cc3ccc(C(=O)Nc4ccc5c(c4)CCN(C(=O)CCCCC(O)S(=O)(=O)O)C5)cc3)C3CC3)ccc2N1` (stereo not drawn) [UNC10088], the “fold reduction of IC50 upon addition of FBXO22” value (IC50 alone vs with FBXO22 FIST) was “about 2.5 fold”. In addition, the “cooperativity factor (α) = Ki (Binary)/Ki (Ternary)” value (NSD2 PWWP1 with vs without FBXO22 FIST, with preincubation) was determined as 3.3. Also, the “cooperativity factor (α) without preincubation” value (compound not preincubated with FBXO22) was determined as 3.1.
